In assay [1] the target is T1, hPPARγ receptor (Homo sapiens, UniProt P37231).
T1 construct: expressed in transfected cells; host or cells: CV-1 (African Green Monkey kidney, ATCC CCL-70)
T1 sequence (P37231 172-475 isoform P37231-2): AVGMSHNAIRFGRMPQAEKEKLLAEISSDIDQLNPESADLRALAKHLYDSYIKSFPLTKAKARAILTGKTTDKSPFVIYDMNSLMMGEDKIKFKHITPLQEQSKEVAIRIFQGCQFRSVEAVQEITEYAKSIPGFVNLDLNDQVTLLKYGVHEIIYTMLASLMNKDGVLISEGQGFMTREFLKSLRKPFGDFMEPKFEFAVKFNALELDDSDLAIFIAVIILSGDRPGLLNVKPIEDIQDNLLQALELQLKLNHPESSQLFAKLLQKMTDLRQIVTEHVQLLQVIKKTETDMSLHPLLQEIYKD
As to the kind of experiment: PPARγ Cell-based luciferase assay. Particulars: CV-1 cells transfected with GAL4-hPPARγ LBD and UAStkLuc; at concentrations of 10^−6 M or less; read-out: agonism of the hPPARγ receptor (activation relative to full agonist rosiglitazone). The gist of the method:
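CV-1 cells were transiently transfected with GAL4-DBD/human PPARγ LBD (172-475) and a UAS-tk-firefly luciferase reporter. Cells were plated at 10,000/well in 5% charcoal-stripped FBS medium onto 11-point, 3-fold compound dilutions and incubated overnight at 37 °C. Luminescence was read after Steady-Glo lysis, with activation scored relative to rosiglitazone as full agonist.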

Assay [2] has as its system Male Zucker Diabetic Fatty rats. The assay is described as follows: In vivo evaluation: serum glucose in Zucker Diabetic Fatty rats. The arrangement: species or system rat. Particulars: 10 mg/kg once daily by oral gavage, 28 days, percent reduction from vehicle control at day 28 relative to normalization (140 mg/dL). The protocol: Male Zucker Diabetic Fatty rats were lightly anesthetized with isofluorane gas and bleed by tail vein to obtain postprandial baseline concentrations for serum glucose, serum lipids and insulin. Animals were baseline matched by serum glucose and randomized into vehicle or treatment groups with compound administration by oral gavage beginning at 6.5 weeks of age. Selected compounds were administered once daily at 10 mg/kg in 25 mM N-Methyl-Glucamine with 5% w/v Solutol HS15. After 28 consecutive days of treatment, blood samples were obtained and analyzed for serum glucose. Values in Table 1 for % Glucose reduction represent a summary of the percent reduction from vehicle control animals at day 28 relative to normalization defined in this model as serum glucose levels of 140 mg/dL.

Take `CC(C)(C)c1ccc(-c2c(C(=O)O)n(Cc3cc(OCCN4CCOCC4)cc(OCC4CC4)c3)c3ccccc23)cc1` [Example 42, 1-[(3-[(cyclopropylmethyl)oxy]-5-{[2-(4-morpholinyl)ethyl]oxy}phenyl)methyl]-3-[4-(1,1-dimethylethyl)phenyl]-1H-indole-2-carboxylic acid]: in assay [1], the Emax was 20 to 80%. Also, in assay [2], the “% Glucose Reduction” value is 82%.

In the case of `COc1cc(Cn2c(C(=O)O)c(-c3ccc(C(C)(C)C)cc3)c3ccccc32)cc(-c2ccc(C(=O)O)cc2)c1` [Example 18, 1-{[4′-carboxy-5-(methyloxy)-3-biphenylyl]methyl}-3-[4-(1,1-dimethylethyl)phenyl]-1H-indole-2-carboxylic acid], the Emax in assay [1] lay in the range of 20 to 80%. For the same molecule, the “% Glucose Reduction” value in assay [2] was 44%.

`COCCOc1cc(Cn2c(C(=O)O)c(-c3ccc(C(C)(C)C)cc3)c3ccccc32)cc(N2CCOCC2)c1` [Example 68, 3-[4-(1,1-dimethylethyl)phenyl]-1-{[3-{[2-(methyloxy)ethyl]oxy}-5-(4-morpholinyl)phenyl]methyl}-1H-indole-2-carboxylic acid]: the Emax in assay [1] was 20 to 80%. Moreover, the “% Glucose Reduction” value in assay [2] is given as 95%.

`COCCOc1cc(Cn2c(C(=O)O)c(-c3ccc(C(C)(C)C)cc3)c3ccccc32)cc(OCC2CC2)c1` [Example 2, 1-[(3-[(cyclopropylmethyl)oxy]-5-{[2-(methyloxy)ethyl]oxy}phenyl)methyl]-3-[4-(1,1-dimethylethyl)phenyl]-1H-indole-2-carboxylic acid]: the Emax in assay [1] lay within 20 to 80%. In assay [2], the “% Glucose Reduction” value stood at 96%.

Consider `CC(C)(C)c1ccc(-c2c(C(=O)O)n(Cc3cccc(-c4ccc(S(C)(=O)=O)cc4)c3)c3ccccc23)cc1` [Example 24, 3-[4-(1,1-dimethylethyl)phenyl]-1-{[4′-(methylsulfonyl)-3-biphenylyl]methyl}-1H-indole-2-carboxylic acid], for which the Emax in assay [1] was 20 to 80%. Further, in assay [2], the “% Glucose Reduction” value stood at 79%.

As for `Cc1ccc(-c2ccc(C(=O)O)cc2)cc1Cn1c(C(=O)O)c(-c2ccc(C(C)(C)C)cc2)c2ccccc21` [Example 11, 1-[(4′-carboxy-4-methyl-3-biphenylyl)methyl]-3-[4-(1,1-dimethylethyl)phenyl]-1H-indole-2-carboxylic acid], the Emax in assay [1] lay within 20 to 80%. In assay [2], the “% Glucose Reduction” value was determined as 49%.

Source of the values: US20100240642A1, “1H-Indole-2-Carboxylic Acid Derivatives Useful As PPAR Modulators” (SMITHKLINE BEECHAM CORPORATION, priority 2006, published 2010).
